US10179767B2 (GENENTECH, INC., priority 2015, dated 2019)

Target: T1, hNav1.7 (Homo sapiens, UniProt Q15858)
T1 construct: expressed in transfected cells
Test: Tritiated sulfonamide binding to membranes from cells expressing hNav1.7 and the β1 subunit (Nav 1.7 ligand binding assay, competitive)
Details: competition with 100 pM [3H]compound, room temperature, 18 h
Method: Tritiated Sulfonamide Binding to Membranes Isolated from Cells that Heterologously Express hNav1.7 and the β1 Subunit
Preparation of membranes containing recombinantly expressed sodium channels: Frozen recombinant cell pellets were thawed on ice and diluted to 4 times the cell pellet weight with ice cold 50 mM Tris HCl, pH 7.4 buffer. The cell suspensions were homogenized on ice using a motorized glass dounce homogeniser. Homogenates were further diluted 8.4 times with ice cold 50 mM Tris HCl, pH 7.4 buffer and then centrifuged at 200×g at 4° C. for 15 min. The supernatants were collected and centrifuged at 10000×g at 4° C. for 50 min. The pellets were then re-suspended in 100 mM NaCl, 20 mM Tris HCl, pH 7.4 buffer containing 1% v/v protease inhibitors (Calbiochem) and re-homogenized on ice. The homogenized membranes were then processed through a syringe equipped with a 26 gauge needle. Protein concentrations were determined by Bradford Assay and the membranes were stored at −80° C.
Radioligand Binding Studies:
Saturation experiments. A competitive NaV1.7 inhibitor having a methyl group was tritiated. Three tritiums were incorporated in place of methyl hydrogens to generate [^3H]compound. Binding of this radioligand was preformed in 5 mL borosilicate glass test tubes at room temperature. Binding was initiated by adding membranes to increasing concentrations of [^3H]compound in 100 mM NaCl, 20 mM Tris HCl, pH 7.4 buffer containing 0.01% w/v bovine serum albumin (BSA) for 18 h. Non-specific binding was determined in the presence of 1 μM unlabelled compound. After 18 h, the reactants were filtered through GF/C glass fiber filters presoaked in 0.5% w/v polyethylene imine Filters were washed with 15 mL ice cold 100 mM NaCl, 20 mM Tris HCl, pH7.4 buffer containing 0.25% BSA to separate bound from free ligand. [^3H]compound bound to filters was quantified by liquid scintillation counting.
Competitive Binding Experiments:
Binding reactions were preformed in 96-well polypropylene plates at room temperature for 18 h. In 360 μL, membranes were incubated with 100 pM [^3H]compound and increasing concentrations of Test Compound. Non-specific binding was defined in the presence of 1 μM unlabelled compound. Reactions were transferred and filtered through 96-well glass fiber/C filter plates presoaked with 0.5% polyethylene imine. The filtered reactions were washed 5 times with 200 μL ice cold buffer containing 0.25% BSA. Bound radioactivity was determined by liquid scintillation counting. Data Analysis: For saturation experiments, non-specific binding was subtracted from total binding to provide specific binding and these values were recalculated in terms of pmol ligand bound per mg protein. Saturation curves were constructed and dissociation constants were calculated using the single site ligand binding model: Beq=(Bmax*X)/(X+Kd), where Beq is the amount of ligand bound at equilibrium, Bmax is the maximum receptor density, Kd is the dissociation constant for the ligand, and X is the free ligand concentration. For competition studies percent inhibition was determined and IC50 values were calculated using a 4 parameter logistic model (% inhibition=(A+((B−A)/(1+((x/C)⨣D)))) using XLfit, where A and B are the maximal and minimum inhibition respectively, C is the IC50 concentration and D is the (Hill) slope.

T1 sequence (Q15858 whole entry): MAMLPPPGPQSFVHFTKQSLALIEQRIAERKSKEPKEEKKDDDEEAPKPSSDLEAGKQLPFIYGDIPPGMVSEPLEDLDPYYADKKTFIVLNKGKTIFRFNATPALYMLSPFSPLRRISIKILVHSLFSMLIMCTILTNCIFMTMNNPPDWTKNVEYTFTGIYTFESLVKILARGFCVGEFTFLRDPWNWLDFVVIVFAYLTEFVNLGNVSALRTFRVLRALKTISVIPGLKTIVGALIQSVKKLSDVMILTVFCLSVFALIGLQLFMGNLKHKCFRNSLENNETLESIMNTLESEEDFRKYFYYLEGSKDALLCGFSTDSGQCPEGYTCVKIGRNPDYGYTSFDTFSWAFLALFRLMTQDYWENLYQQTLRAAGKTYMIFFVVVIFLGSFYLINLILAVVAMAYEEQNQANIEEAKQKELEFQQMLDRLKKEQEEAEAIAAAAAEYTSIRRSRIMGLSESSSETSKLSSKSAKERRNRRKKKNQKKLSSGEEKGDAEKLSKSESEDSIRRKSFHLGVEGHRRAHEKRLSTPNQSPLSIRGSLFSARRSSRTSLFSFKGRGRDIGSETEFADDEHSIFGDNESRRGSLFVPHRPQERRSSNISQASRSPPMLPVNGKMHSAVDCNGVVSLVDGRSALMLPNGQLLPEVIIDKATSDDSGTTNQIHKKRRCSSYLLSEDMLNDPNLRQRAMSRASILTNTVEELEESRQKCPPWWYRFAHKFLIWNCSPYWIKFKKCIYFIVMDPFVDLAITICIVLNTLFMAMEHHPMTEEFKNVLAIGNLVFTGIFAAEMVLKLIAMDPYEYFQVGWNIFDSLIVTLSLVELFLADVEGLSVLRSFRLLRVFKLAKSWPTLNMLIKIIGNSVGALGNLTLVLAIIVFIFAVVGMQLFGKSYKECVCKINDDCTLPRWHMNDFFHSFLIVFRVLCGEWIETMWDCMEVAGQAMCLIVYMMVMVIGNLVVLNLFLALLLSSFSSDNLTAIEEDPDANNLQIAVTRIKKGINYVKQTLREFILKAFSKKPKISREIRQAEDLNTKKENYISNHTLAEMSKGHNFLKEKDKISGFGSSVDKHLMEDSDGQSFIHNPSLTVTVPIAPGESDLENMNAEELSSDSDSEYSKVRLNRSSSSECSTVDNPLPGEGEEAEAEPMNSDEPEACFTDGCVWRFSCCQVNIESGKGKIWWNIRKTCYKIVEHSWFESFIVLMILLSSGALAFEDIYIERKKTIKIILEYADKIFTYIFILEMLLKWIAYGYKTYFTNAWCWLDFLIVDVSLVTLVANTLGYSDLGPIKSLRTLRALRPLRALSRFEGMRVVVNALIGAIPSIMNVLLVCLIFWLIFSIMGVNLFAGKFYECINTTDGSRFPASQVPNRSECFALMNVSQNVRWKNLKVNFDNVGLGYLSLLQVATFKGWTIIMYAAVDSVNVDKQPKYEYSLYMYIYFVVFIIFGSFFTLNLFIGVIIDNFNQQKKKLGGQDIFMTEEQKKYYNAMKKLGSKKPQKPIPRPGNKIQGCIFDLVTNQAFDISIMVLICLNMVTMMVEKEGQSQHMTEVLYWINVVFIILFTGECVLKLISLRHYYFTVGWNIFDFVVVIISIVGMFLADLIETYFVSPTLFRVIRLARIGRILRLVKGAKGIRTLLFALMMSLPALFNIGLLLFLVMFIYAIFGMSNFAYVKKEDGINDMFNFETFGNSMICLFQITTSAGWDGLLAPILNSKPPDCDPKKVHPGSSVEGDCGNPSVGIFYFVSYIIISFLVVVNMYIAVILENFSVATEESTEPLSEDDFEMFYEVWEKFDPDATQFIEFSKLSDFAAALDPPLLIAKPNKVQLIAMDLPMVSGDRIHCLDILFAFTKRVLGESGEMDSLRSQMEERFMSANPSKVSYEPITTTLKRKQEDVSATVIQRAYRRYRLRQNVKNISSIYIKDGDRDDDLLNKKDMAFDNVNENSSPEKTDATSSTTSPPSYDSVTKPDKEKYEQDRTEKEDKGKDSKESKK
T1 sequence (Q07699 19-218 partner): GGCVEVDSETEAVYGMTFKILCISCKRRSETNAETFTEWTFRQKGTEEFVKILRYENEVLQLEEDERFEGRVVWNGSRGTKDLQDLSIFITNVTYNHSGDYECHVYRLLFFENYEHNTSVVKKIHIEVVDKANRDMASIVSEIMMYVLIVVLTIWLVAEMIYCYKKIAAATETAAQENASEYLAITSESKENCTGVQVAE

SMILES	IC50 [nM]
CS(=O)(=O)NC(=O)c1cc(C2CC2)c(O[C@H]2CN(Cc3ccc(F)cc3Cl)CC[C@@H]2F)cc1F (relative stereo) [Example 45, trans 4-((1-(2-chloro-4-fluorobenzyl)-4-fluoropiperidin-3-yl)oxy)-5-cyclopropyl-2-fluoro-N-(methylsulfonyl)benzamide]	83
C[C@H](c1cc(Cl)cc(Cl)c1C#N)N1CCC(COc2cc(F)c(C(=O)NS(C)(=O)=O)cc2C2CC2)CC1 (single isomer, unassigned) [Example 1]	8.8
COC1(COc2cc(F)c(C(=O)NS(C)(=O)=O)cc2C2CC2)CCN([C@@H](C)c2cc(Cl)cc(Cl)c2)CC1 (single isomer, unassigned) [Example 5]	9.2
C[C@H](c1cc(C(F)(F)F)cc(Cl)c1F)N1CCC(C#N)(COc2cc(F)c(C(=O)NS(C)(=O)=O)cc2C2CC2)CC1 (single isomer, unassigned) [Example 8]	9.8
C[C@@H](c1ccc(F)cc1Cl)N1CCC(F)(COc2cc(F)c(C(=O)NS(C)(=O)=O)cc2C2CC2)CC1 (single isomer, unassigned) [Example 18]	10
C[C@H](c1ccc(F)c(Cl)c1)N1CCC(F)(COc2cc(F)c(C(=O)NS(C)(=O)=O)cc2C2CC2)CC1 (single isomer, unassigned) [Example 27]	8.6
CS(=O)(=O)NC(=O)c1cc(C2CC2)c(OCC2CCN([C@H](c3cc(Cl)cc(Cl)c3)C3COC3)CC2)cc1F (single isomer, unassigned) [Example 34]	9.9
CS(=O)(=O)NC(=O)c1cc(C2CC2)c(OCC2CCN([C@@H](c3cc(Cl)cc(Cl)c3)C3COC3)CC2)cc1F (single isomer, unassigned) [Example 35]	8.2
C[C@@H](c1ccc(Cl)c(F)c1)N1CCC(COc2cc(F)c(C(=O)NS(C)(=O)=O)cc2C2CC2)CC1 (single isomer, unassigned) [Example 40]	6.6
CS(=O)(=O)NC(=O)c1cc(C2CC2)c(OCC2CCN(Cc3cc(Cl)cc(C(F)(F)F)c3C#N)CC2)cc1F [Example 4, 4-((1-(5-Chloro-2-cyano-3-(trifluoromethyl)benzyl)piperidin-4-yl)methoxy)-5-cyclopropyl-2-fluoro-N-(methylsulfonyl)benzamide]	6.6
CS(=O)(=O)NC(=O)c1cc(C2CC2)c(OCC2(O)CCN(Cc3cc(Cl)cc(Cl)c3)CC2)cc1F [Example 6, 5-Cyclopropyl-4-((1-(3,5-dichlorobenzyl)-4-hydroxypiperidin-4-yl)methoxy)-2-fluoro-N-(methylsulfonyl)benzamide]	10
COC1(COc2cc(F)c(C(=O)NS(C)(=O)=O)cc2C2CC2)CCN(Cc2cc(C(F)(F)F)cc(Cl)c2F)CC1 [Example 7, 4-((1-(3-Chloro-2-fluoro-5-(trifluoromethyl)benzyl)-4-methoxypiperidin-4-yl)methoxy)-5-cyclopropyl-2-fluoro-N-(methylsulfonyl)benzamide]	7.9
CCS(=O)(=O)NC(=O)c1cc(C2CC2)c(OCC2(OC)CCN(Cc3cc(Cl)cc(Cl)c3)CC2)cc1F [Example 10, 5-Cyclopropyl-4-((1-(3,5-dichlorobenzyl)-4-methoxypiperidin-4-yl)methoxy)-N-(ethylsulfonyl)-2-fluorobenzamide]	9
COc1c(Cl)cc(Cl)cc1CN1CCC(COc2cc(F)c(C(=O)NS(C)(=O)=O)cc2C2CC2)CC1 [Example 14, 5-Cyclopropyl-4-((1-(3,5-dichloro-2-methoxybenzyl)piperidin-4-yl)methoxy)-2-fluoro-N-(methylsulfonyl)benzamide]	6.5

Continued, values first:

IC50 [nM]	SMILES
5.5	C[C@@H](c1cc(Cl)cc(Cl)c1C#N)N1CCC(COc2cc(F)c(C(=O)NS(C)(=O)=O)cc2C2CC2)CC1 (single isomer, unassigned) [Example 2]
4.2	CC(C)(C#N)[C@H](c1cc(Cl)cc(Cl)c1)N1CCC(COc2cc(F)c(C(=O)NS(C)(=O)=O)cc2C2CC2)CC1 (single isomer, unassigned) [Example 11]
3.9	CC(C)(C#N)[C@@H](c1cc(Cl)cc(Cl)c1)N1CCC(COc2cc(F)c(C(=O)NS(C)(=O)=O)cc2C2CC2)CC1 (single isomer, unassigned) [Example 12]
5.1	COc1c(Cl)cc(Cl)cc1[C@@H](C)N1CCC(COc2cc(F)c(C(=O)NS(C)(=O)=O)cc2C2CC2)CC1 (single isomer, unassigned) [Example 15]
5.7	COc1c(Cl)cc(Cl)cc1[C@H](C)N1CCC(COc2cc(F)c(C(=O)NS(C)(=O)=O)cc2C2CC2)CC1 (single isomer, unassigned) [Example 16]
6	C[C@H](c1ccc(F)cc1Cl)N1CCC(F)(COc2cc(F)c(C(=O)NS(C)(=O)=O)cc2C2CC2)CC1 (single isomer, unassigned) [Example 19]
5.6	C[C@@H](c1ccc(Cl)c(Cl)c1)N1CCC(F)(COc2cc(F)c(C(=O)NS(C)(=O)=O)cc2C2CC2)CC1 (single isomer, unassigned) [Example 22]
6.4	C[C@H](c1ccc(Cl)c(Cl)c1)N1CCC(F)(COc2cc(F)c(C(=O)NS(C)(=O)=O)cc2C2CC2)CC1 (single isomer, unassigned) [Example 23]
4.1	C[C@@H](c1cc(F)cc(Cl)c1)N1CCC(F)(COc2cc(F)c(C(=O)NS(C)(=O)=O)cc2C2CC2)CC1 (single isomer, unassigned) [Example 24]
2	C[C@H](c1cc(F)cc(Cl)c1)N1CCC(F)(COc2cc(F)c(C(=O)NS(C)(=O)=O)cc2C2CC2)CC1 (single isomer, unassigned) [Example 25]
4.7	C[C@@H](c1ccc(F)c(Cl)c1)N1CCC(F)(COc2cc(F)c(C(=O)NS(C)(=O)=O)cc2C2CC2)CC1 (single isomer, unassigned) [Example 26]
5.1	CCS(=O)(=O)NC(=O)c1cc(C2CC2)c(OCC2CCN([C@@H](C)c3cc(Cl)cc(Cl)c3F)CC2)cc1F (single isomer, unassigned) [Example 32]
2.4	CCS(=O)(=O)NC(=O)c1cc(C2CC2)c(OCC2CCN([C@H](C)c3cc(Cl)cc(Cl)c3F)CC2)cc1F (single isomer, unassigned) [Example 33]
6	C[C@@H](c1ccc(F)c(Cl)c1)N1CCC(COc2cc(F)c(C(=O)NS(C)(=O)=O)cc2C2CC2)CC1 (single isomer, unassigned) [Example 36]
3	C[C@H](c1cc(Cl)c(F)c(Cl)c1)N1CCC(COc2cc(F)c(C(=O)NS(C)(=O)=O)cc2C2CC2)CC1 (single isomer, unassigned) [Example 37]
3.1	C[C@@H](c1cc(Cl)c(F)c(Cl)c1)N1CCC(COc2cc(F)c(C(=O)NS(C)(=O)=O)cc2C2CC2)CC1 (single isomer, unassigned) [Example 38]
4.6	C[C@H](c1ccc(Cl)c(F)c1)N1CCC(COc2cc(F)c(C(=O)NS(C)(=O)=O)cc2C2CC2)CC1 (single isomer, unassigned) [Example 39]
4.5	CS(=O)(=O)NC(=O)c1cc(C2CC2)c(OCC2CCN(Cc3cc(C(F)(F)F)cc(Cl)c3C#N)CC2)cc1F [Example 3, 4-((1-(3-chloro-2-cyano-5-(trifluoromethyl)benzyl)piperidin-4-yl)methoxy)-5-cyclopropyl-2-fluoro-N-(methylsulfonyl)benzamide]
5.7	COC1(COc2cc(F)c(C(=O)NS(=O)(=O)C3CC3)cc2C2CC2)CCN(Cc2cc(Cl)cc(Cl)c2)CC1 [Example 9, 5-Cyclopropyl-N-(cyclopropylsulfonyl)-4-((1-(3,5-dichlorobenzyl)-4-methoxypiperidin-4-yl)methoxy)-2-fluorobenzamide]
4.1	CCS(=O)(=O)NC(=O)c1cc(C2CC2)c(OCC2CCN(Cc3cc(Cl)cc(Cl)c3OC)CC2)cc1F [Example 13, 5-Cyclopropyl-4-((1-(3,5-dichloro-2-methoxybenzyl)piperidin-4-yl)methoxy)-N-(ethylsulfonyl)-2-fluorobenzamide]
5.9	N#Cc1c(Cl)cc(Cl)cc1CN1CCC(COc2cc(F)c(C(=O)NS(=O)(=O)C3CC3)cc2C2CC2)CC1 [Example 17, 5-Cyclopropyl-N-(cyclopropylsulfonyl)-4-((1-(3,5-dichloro-2-cyanobenzyl)piperidin-4-yl)methoxy)-2-fluorobenzamide]
